In this assay the test system is DNA gyrase. Description: DNA gyrase supercoiling inhibition assay (initial IC50 determination). The assay is classed as biochemical, E. coli. The note with it: vs Albi-3. The procedure: For initial compound IC50 determination, DNA supercoiling experiments with DNA gyrase were performed in a total volume of 30 μl of gyrase buffer (Inspiralis). The reactions contained 500 ng relaxed pBR322 plasmid DNA, 1.5 U DNA gyrase (6 U μl^−1) and albicidin derivatives at a final concentration of between 2.5 and 320 nM. The final DMSO concentration used was 3%. Samples were incubated at 37 °C for 30 min and subsequently loaded on an agarose gel. Electrophoretic analysis was performed using a 1% agarose gel (100 V, 90 min). DNA bands were stained with ethidium bromide and subsequently quantified using ImageJ 1.53k software.
Extended Data Fig. 8 Inhibition of supercoiling by Albi-1/2/3. a. Chemical structures of Albi-1, Albi-2 and Albi-3. b. Example supercoiling inhibition assay gels: Albi-1, decreasing concentrations (320, 160, 80, 40, 20, 10, 5, 2.5 nM); Albi-2 (320, 160, 80, 40, 20 nM); Albi-3 (960, 800, 640, 480, 320, 160, 80, 40 nM). First lane - relaxed pBR322; second lane - DNA gyrase. 40 nM albicidin was used as positive control (third lane). Different concentrations were tested and representative gels are shown.

With `COc1c(NC(=O)c2ccc(NC(=O)c3ccc(NC(=O)[C@H](Cc4c[nH]nn4)NC(=O)c4ccc(NC(=O)c5ccc6cc(O)ccc6c5)cc4)cn3)c(OCCN)c2O)ccc(C(=O)O)c1O` [Albi-2], the “better activity in the gyrase inhibition assay than Albi-3” value is ~ 4 fold.

The values are drawn from paper PMC9886550, “Molecular mechanism of topoisomerase poisoning by the peptide antibiotic albicidin” (Nature Catalysis, 2023).
